Like-named read-outs stand apart in the source and are kept apart here.
Assays:
[1] = system: Aβ plaques; assay: AD tissue staining of APP-PS1 brain sections; conditions: 25 micron sections, 12-month old APP-PS1 mice
From the text: The inventors conducted tissue staining with 25 micron brain sections from 12-month old APP-PS1 mice by all the compounds listed in FIG. 12.

[2] = target: T1, Aβ40 aggregates (Homo sapiens, UniProt P05067); assay: Aβ aggregates detection in solution by fluorescence spectrum; assay type: binding; conditions: 250 nM compound, 250 nM Aβ40 aggregates, PBS
T1 construct: Synthetic amyloid-b protein (1-40) was purchased from rPeptide; purchased rPeptide (Bogart, Ga.)
Method: They then incubated 250 nM of the compounds with 250 nM of Aβ40 aggregates (calculation based on monomer) in PBS for one minute, and then measured the fluorescence spectra of the solutions.

[3] = target: T1, Aβ40 aggregates; assay: In vitro Aβ aggregates binding constant measurement; conditions: Aβ40 aggregates in PBS, fluorescence intensity, nonlinear one-site regression; read-out: Binding constant (Kd) towards Aβ aggregates
Method: […] The Kd binding curve was generated by software Prism 3.0 with nonlinear one-site binding regression.
Binding constant (Kd) of CRANAD-2 towards Aβ aggregates was measured by fluorescence intensity (F.I.) with various concentrations of the prob.

[4] = system: senile plaques; assay: Ex vivo histological correlation; assay type: in vivo, mice; conditions: 10 mg/kg i.v.
Method: 19 month-old mouse was injected CRANAD-2 (10.0 mg/kg), and was sacrified after perfusion with 4% formaldehyde. The brain was taken and embedded in OCT. For histology, the brain was sliced into 25μ slices, and co-stained with thioflavin S as described above. To obtain ex vivo confirmation of the probe binding, mice at different ages were i.v injected with 10 mg/kg of CRANAD-2 probe, perfused and scarified at 1 h after injection.

[5] = Fluorescence emission properties of the probes; assay type: physicochemical; conditions: probe alone, methanol (FIG. 2)
Method: Reagents used for synthesis were purchased from Aldrich without further purification. Column chromatography was performed on silica gel (SiliCycle Inc., 60 Å, […]) slurry packed into glass columns. Thioflavin S was purchased from Aldrich. Synthetic amyloid-b protein (1-40) was purchased from rPeptide (Bogart, Ga., 30622) and aggregates for in vitro studies were generated followed the reported procedure. BSA was purchased from Sigma, and human serum was obtained from Invitrogen (type AB). ^1H and ^13C NMR spectra were recorded at 400 MHz and 100 MHz respectively, and are reported in ppm downfield from tetramethylsilane. Fluorescence studies were carried out with F-4500 Fluorescense Spectrophotometer. Fluorescence quantum yields were determined using aqueous solution of Cy5.5-maleimide as a standard (y=0.23). High resolution mass spectra were obtained at the Harvard University, Department of Chemistry Instrumentation Facility. Transgenic Tg2576 mice {45} and littermates were purchased from Taconic Farm, Balb/c mice for BBB penetrating test were obtained from Jackson Laboratory, and the experiment procedure was approved by Massachusetts General Hospital. In vivo imaging was recorded on Kodak Imaging Station 2000MM.
Furthermore, by comparing the fluorescence intensity in methanol, the quantum yield of CRANAD-2 was significant higher than that of curcumin (FIG. 2). […] Additionally, these modifications produced a large stokes shift and improved quantum yield of CRANAD-2. The synthesized compound produced the longest emission and the largest stokes shift among the existing probes for senile plaque detection {3}.

[6] = cited from earlier work
[7] = target: T1, Aβ40 aggregates; conditions: reported values used for comparison; read-out: Kd towards Aβ aggregates (literature); cited from earlier work

T1 sequence (P05067 672-711 limits assumed): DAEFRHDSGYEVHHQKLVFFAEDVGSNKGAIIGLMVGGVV

With Cc1ccc2c(c1)sc(-c1ccc(N(C)C)cc1)[n+]2C.[Cl-] [Thioflavin T] the “Staining of plaques in brain sections” value [1] was “stained the plaques brightly”, the “FI amplification with Aβ40 aggregates” value [2] was 72 fold and the “Fluorescence intensity change with Aβ40 aggregates” value ([2]; one minute) was “intensity increases”.

In the case of [11CH3]Nc1ccc(-c2nc3ccc(O)cc3s2)cc1 [PiB], the “Staining of plaques in brain sections” value [1] is reported as “stained the plaques brightly”.

For COc1cc(C=CC2=CC(C=Cc3ccc(O)c(OC)c3)=[O+][B-](F)(F)O2)ccc1O [CRANAD-1, 1,7-Bis-(4-hydroxy-3-methoxyphenyl)-hepta-1,6-diene-2′,2′-difluoro-1′,3′-dioxaboryl-3,5-dione], the Kd [3] was 1 nM, the “Labelling of senile plaques ex vivo after i.v. injection” value ([4]; 11-month old transgenic and wild-type mice, thioflavin S staining) was “could not find obvious senile plaques” and the “Labelling of senile plaques ex vivo after i.v. injection” value ([4]; 19-month old transgenic mice) was “can penetrate BBB and label senile plaques in vivo”.

In the case of COc1cc(C=CC(=O)CC(=O)C=Cc2ccc(O)c(OC)c2)ccc1O [curcumin, 1,7-bis(4-hydroxy-3-methoxyphenyl)-1,6-heptadiene-3,5-dione], the “Staining of plaques in brain sections” value [1] is reported as “stained the plaques brightly”, the “Fluorescence intensity change with Aβ40 aggregates” value ([2]; one minute) is reported as “intensity increases” and the “Wavelength shift with Aβ40 aggregates” value ([2]; one minute) is reported as “wavelength blue-shifts”. The Stokes shift [5] was 50 nm, the “λmax(em)” value [5] was 560 nm and the “λmax(ex)” value [5] was 510 nm. For the same molecule, the “log P (literature)” value [6] was < 2.

In the case of N#CC(C#N)=Cc1ccc(-c2ccc(-c3ccc(O)cc3)s2)s1 [NIAD-4], the Kd [7] is given as 10 nM.

Source: patent US10149644B2, “Curcumin derivatives for amyloid-β plaque imaging” (The General Hospital Corporation, priority 2008, dated 2018)
